Results reported in patent US20170074857A1, “MEDICATION ADHERENCE MONITORING DEVICE” (UNIVERSITY OF FLORIDA RESEARCH FOUNDATION, INC., priority 2014, published 2017).

How the values were obtained:
[1] = Example 4b: breath acetone and 2-butanone by Type 1 mGC after soft gel with 2-butanol and isopropyl alcohol; format: in vivo, human; details: 2-butanol (40 mg) and isopropyl alcohol (30 mg)
Experimental: Shown in Panel A of FIG. 76 is the 1st derivative mGC response (proportional to EDIM breath concentration) in a Type 1 SMART Device for acetone and 2-butanone as a function of breath sampling times post ingestion of the capsule.
Panel B depicts the change from baseline of the 1st derivative mGC response. Time 0 is baseline (immediately before capsule is ingested containing the two AEMs). […] Note how the 2-butanone levels in breath begin to fall after 20 min, whereas those of acetone slowly continue to rise over the study period.

[2] = cited from earlier work

CCC(C)=O [Formulation 2-butanone, 2-butanone]
half life in breath [1]: about 45 minutes | Tmax of breath marker ([1]; fasting subject): 20 min | blood elimination t1/2 ([2]; in vivo): 49 to 96 min | pulmonary uptake from air ([2]; inhalation exposure 100,000-200,000 ppb): 70%
